# Results reported in patent publication US20090123940A1, “MOLECULES INVOLVED IN SYNAPTOGENESIS AND USES THEREFOR” (THE JOHNS HOPKINS UNIVERSITY, priority 2007, published 2009).
# What was measured:
# [1] = system: Narp association with AMPA receptor subunits; test: Co-immunoprecipitation of Narp with AMPA receptor subunits in HEK-293 cells; format: cell-based; conditions: 1 mM tunicamycin
# From the text: Co-immunoprecipitation experiments were used to examine whether Narp is physically associated with AMPA receptors in HEK-293 cells.
# [2] = system: NPR-myc and GluR2-HA in COS-7 cells; test: Live staining of NPR clusters in transfected COS-7 cells after PMA; format: cell-based
# Experimental: Immunocytochemical staining. Immunocytochemical staining of heterologous cells was performed as described (Xu et al., supra). For PMA-stimulation experiments, PMA (Sigma Cat #: P8139) at (150 nM) was added 90 minutes prior to live staining. Images were viewed and captured using Nikon E800 epifluorescence microscope fitted with a Princeton Instruments CCD camera. For live staining, neurons cultured on coverslips were incubated at 10° C. with the appropriate primary antibodies at the indicated dilutions in conditioned culture medium for 20 min. They were then washed with PBS and fixed with 4% paraformaldehyde/4% sucrose in PBS for 20 min at room temperature. Cells were permeablized with 0.2% Triton X-100 in PBS for 5 min and then blocked in 10% normal goat serum in PBS for 1 hr at room temperature. […] For quantification of the punctate structures (e.g. GluR1), images were thresholded by grey value to differentiate single puncta. Segments of dendrites were selected and number of puncta was calculated per […] of length dendrite. Figures show ratios of calculated mean densities (number of puncta per unit length) from treated/control. Error bars were calculated using SEM and Gaussian error propagation. n=number of measured dendrites. Significance was determined by paired Student's T-test. […]
# [3] = system: NPR cleavage at Site A (TACE); test: NPR cleavage assay in transfected HEK293T cells; format: cell-based, rat; conditions: PMA 150 nM, cells transfected with NPR
# Experimental: Cleavage Assay HEK293T cells were plated in OptiMEM (Invitrogen, Carlsbad, Calif.) containing 5% FBS onto 6-well dishes at a density of 4×10^5 cells/mL (2 mL/well) 1 day before transfection. Cells were transfected with NPR in pRK5 using LipofectAMINE 2000 (Invitrogen, Carlsbad Calif.). After 24 hr the medium was replaced with serum-free OptiMEM. […] Samples from each well were obtained at specific time points, immediately placed on ice, centrifuged at 15,000 g to remove cell debris, and then treated with 2% β-mercaptoethanol containing loading buffer. At the end of the time course, the cells were lysed with RIPA buffer, centrifuged to remove cell debris, and treated with 2% β-mercaptoethanol in loading buffer. Samples (20 μL of medium or lysate diluted to 1/5) were run on SDS-PAGE gels and analyzed by Western blotting.
molecule,measurement,setting,value
tunicamycin,association between Narp and AMPA receptor subunits,[1],no effect
"CCCCCCCCCCCCCC(=O)O[C@@H]1[C@@H](C)[C@@]2(O)[C@@H](C=C(CO)C[C@]3(O)C(=O)C(C)=C[C@@H]23)[C@@H]2C(C)(C)[C@]12OC(C)=O [PMA, phorbol myristate acetate]",NPR distribution on COS-7 cells expressing NPR-myc,"[2]; PMA 150 nM, 90 min",large clusters of NPR were detected
same,clustering of NPR and GluR2 in COS-7 cells co-transfected with NPR-myc and GluR2-HA,[2]; PMA treated,exhibited co-clusters of NPR and GluR2
same,accumulation of LFC-NPR in the medium,[3],increased the accumulation of LFC-NPR in the medium
